Reference: the NIST ThermoML archive (doi:10.1016/j.fluid.2008.10.003)

Assay: isobaric coefficient of expansion; xn = mol fraction of the nth substance listed
Conditions: calorimetric method

CCCCCCO [hexan-1-ol] + CCCCCC
isobaric coefficient of expansion
Conditions	5000 kPa	10000 kPa	15000 kPa	20000 kPa	25000 kPa	30000 kPa	35000 kPa	40000 kPa	45000 kPa	50000 kPa
328.15 K, x1 = 0.0321	0.00143 1/K	0.00135 1/K	0.00128 1/K	0.00122 1/K	0.00117 1/K	0.00112 1/K	0.00108 1/K	0.00104 1/K	0.00101 1/K	0.000976 1/K
328.15 K, x1 = 0.041	0.00143 1/K	0.00135 1/K	0.00128 1/K	0.00122 1/K	0.00117 1/K	0.00112 1/K	0.00108 1/K	0.00103 1/K	0.001 1/K	0.000972 1/K
328.15 K, x1 = 0.0946	0.00141 1/K	0.00133 1/K	0.00126 1/K	0.0012 1/K	0.00116 1/K	0.00111 1/K	0.00107 1/K	0.00103 1/K	0.001 1/K	0.000972 1/K
328.15 K, x1 = 0.1679	0.00136 1/K	0.0013 1/K	0.00123 1/K	0.00118 1/K	0.00113 1/K	0.00109 1/K	0.00105 1/K	0.00101 1/K	0.000982 1/K	0.000952 1/K
328.15 K, x1 = 0.2153	0.00134 1/K	0.00127 1/K	0.00121 1/K	0.00116 1/K	0.00112 1/K	0.00107 1/K	0.00104 1/K	0.000999 1/K	0.000971 1/K	0.000945 1/K
328.15 K, x1 = 0.3016	0.00129 1/K	0.00122 1/K	0.00117 1/K	0.00112 1/K	0.00108 1/K	0.00104 1/K	0.00101 1/K	0.000975 1/K	0.000948 1/K	0.000922 1/K
328.15 K, x1 = 0.4075	0.00123 1/K	0.00117 1/K	0.00113 1/K	0.00108 1/K	0.00104 1/K	0.00101 1/K	0.000977 1/K	0.000948 1/K	0.00092 1/K	0.000894 1/K
328.15 K, x1 = 0.503	0.00118 1/K	0.00113 1/K	0.00108 1/K	0.00104 1/K	0.00101 1/K	0.000979 1/K	0.000952 1/K	0.000922 1/K	0.000899 1/K	0.000877 1/K
328.15 K, x1 = 0.594	0.00113 1/K	0.00108 1/K	0.00105 1/K	0.00101 1/K	0.00098 1/K	0.000949 1/K	0.000921 1/K	0.000893 1/K	0.000872 1/K	0.000851 1/K
328.15 K, x1 = 0.6827	0.00108 1/K	0.00104 1/K	0.00101 1/K	0.000973 1/K	0.000945 1/K	0.000918 1/K	0.000891 1/K	0.000865 1/K	0.000843 1/K	0.000823 1/K
328.15 K, x1 = 0.8013	0.00102 1/K	0.000985 1/K	0.000957 1/K	0.000926 1/K	0.0009 1/K	0.000874 1/K	0.00085 1/K	0.000825 1/K	0.000808 1/K	0.000789 1/K
328.15 K, x1 = 0.8934	0.000972 1/K	0.000945 1/K	0.000917 1/K	0.000889 1/K	0.000869 1/K	0.000845 1/K	0.000823 1/K	0.000802 1/K	0.000783 1/K	0.000767 1/K
328.15 K, x1 = 1	0.000929 1/K	0.0009 1/K	0.000876 1/K	0.000854 1/K	0.000833 1/K	0.000813 1/K	0.000794 1/K	0.000776 1/K	0.000759 1/K	0.000745 1/K
348.15 K, x1 = 0.0321	0.00153 1/K	0.00141 1/K	0.00133 1/K	0.00126 1/K	0.00119 1/K	0.00114 1/K	0.00109 1/K	0.00105 1/K	0.00101 1/K	0.00098 1/K
348.15 K, x1 = 0.041	0.00152 1/K	0.00142 1/K	0.00133 1/K	0.00126 1/K	0.0012 1/K	0.00114 1/K	0.0011 1/K	0.00105 1/K	0.00101 1/K	0.00098 1/K
348.15 K, x1 = 0.0946	0.00151 1/K	0.00141 1/K	0.00133 1/K	0.00126 1/K	0.00119 1/K	0.00114 1/K	0.0011 1/K	0.00105 1/K	0.00102 1/K	0.000988 1/K
348.15 K, x1 = 0.1679	0.00147 1/K	0.00138 1/K	0.0013 1/K	0.00123 1/K	0.00118 1/K	0.00113 1/K	0.00108 1/K	0.00104 1/K	0.001 1/K	0.000967 1/K
348.15 K, x1 = 0.2153	0.00144 1/K	0.00135 1/K	0.00128 1/K	0.00122 1/K	0.00116 1/K	0.00111 1/K	0.00107 1/K	0.00103 1/K	0.000999 1/K	0.000968 1/K
348.15 K, x1 = 0.3016	0.00138 1/K	0.0013 1/K	0.00124 1/K	0.00118 1/K	0.00112 1/K	0.00108 1/K	0.00104 1/K	0.00101 1/K	0.000976 1/K	0.000944 1/K
348.15 K, x1 = 0.4075	0.00132 1/K	0.00125 1/K	0.00119 1/K	0.00113 1/K	0.00109 1/K	0.00105 1/K	0.00101 1/K	0.000981 1/K	0.00095 1/K	0.000924 1/K
348.15 K, x1 = 0.503	0.00126 1/K	0.0012 1/K	0.00114 1/K	0.0011 1/K	0.00106 1/K	0.00102 1/K	0.000989 1/K	0.000956 1/K	0.000929 1/K	0.000904 1/K
348.15 K, x1 = 0.594	0.00121 1/K	0.00115 1/K	0.0011 1/K	0.00106 1/K	0.00102 1/K	0.000993 1/K	0.00096 1/K	0.000928 1/K	0.000904 1/K	0.000882 1/K
348.15 K, x1 = 0.6827	0.00116 1/K	0.00111 1/K	0.00107 1/K	0.00103 1/K	0.000994 1/K	0.000963 1/K	0.000933 1/K	0.000903 1/K	0.000881 1/K	0.000859 1/K
348.15 K, x1 = 0.8013	0.00109 1/K	0.00105 1/K	0.00101 1/K	0.000979 1/K	0.000947 1/K	0.00092 1/K	0.000892 1/K	0.000866 1/K	0.000845 1/K	0.000824 1/K
348.15 K, x1 = 0.8934	0.00104 1/K	0.001 1/K	0.00097 1/K	0.00094 1/K	0.000911 1/K	0.000886 1/K	0.000862 1/K	0.000838 1/K	0.000817 1/K	0.000797 1/K
348.15 K, x1 = 1	0.000995 1/K	0.00096 1/K	0.000929 1/K	0.000903 1/K	0.000875 1/K	0.000852 1/K	0.000831 1/K	0.000808 1/K	0.000791 1/K	0.000772 1/K
